# Patent US20120135053A1, “NANOPARTICULATE TELMISARTAN COMPOSITIONS AND PROCESS FOR THE PREPARATION THEREOF” (priority 2009, published 2012)
# Like-named read-outs stand apart in the source and are kept apart here.
# Assays:
# [1] = cited from earlier work
# [2] = test system: plasma proteins, mainly albumin and α1—acid glycoprotein; settings: cited from earlier work
# [3] = Visual observation of wettability by stereomicroscope; type: physicochemical; settings: one drop of distillate water on 0.1 mg powder
# [4] = cited from earlier work; remark: listed apart in the source
# in vivo = settings: male, Wistar, rat, po, 30 mg/kg
# Experimental: Both test substances were administered via gastric tube in a dosing volume of 5 ml/kg. The vehicle of the test items was sterile 0.9% NaCl solution and the suspension was kept homogenous by continuous stirring during treatment in order to minimize the error resulting from the sedimentation.
# Male Wistar rats (purchased from Laboratory Animal Center, University of Szeged) were maintained on a standard pellet rodent diet (Bioplan Ltd, Isaszeg, Hungary) under temperature and light-controlled conditions with tap water available ad libitum. The acclimatization period was at least 4 days. […] All animals were fasting for 16 hours before oral treatment. […] Water was available immediately after treatment for all animals. […] Serum samples were prepared by centrifugation (7000 rpm, 10 min, 4° C.) of the clotted blood within 60 minutes and were stored at −20° C. till analysis.
# An aliquot of 200 μl serum was combined with 20 μl of internal standard working solution and 1.2 ml acetonitrile for protein precipitation. The mixture was vortexed for 1 min and centrifuged at 12000 rpm for 10 min at 4° C. The supernatants were evaporated to dryness under a stream of nitrogen at 40° C. and reconstituted with 200 μl of water—methanol (50:50 v/v) and 20 μl was injected into the HPLC system.
# Unpaired t-test was used to statistically compare the serum concentrations belonging to the same time points. […]
# [5] = Comparative dissolution test in distillate water; type: physicochemical; settings: UV-VIS
# Experimental: The suspension was stirred for 1, 5, 10, 20 and 60 minutes and then it was filtered by 0.2 μm disposable syringe filter. Telmisartan concentration was determined by UV-VIS spectrophotometer (Agilent 8453).
compound,measurement,setting,value
"CCCc1nc2c(C)cc(-c3nc4ccccc4n3C)cc2n1Cc1ccc(-c2ccccc2C(=O)O)cc1 [Telmisartan, 4′-[(1,4′-dimethyl-2′-propyl [2,6′-bi-1H-benzimidazol]-1′-yl)methyl]-[1,1′-biphenyl]-2-carboxylic acid]",reduction in AUC by food,[1]; 40 mg tablet,about 6%
same,absolute bioavailability,[1]; 40 mg,42%
same,reduction in AUC by food,[1]; 160 mg dose,about 20%
same,absolute bioavailability,[1]; 160 mg,58%
same,glucuronide share of the measured radioactivity in plasma,[1]; after a single dose,approximately 11%
same,involvement of cytochrome P450 isoenzymes in metabolism,[1]; in vivo,not involved
same,terminal elimination half life,[1]; in vivo,approximately 24 hours
same,total plasma clearance,[1]; in vivo,> 800 mL/min
same,volume of distribution,[1]; in vivo,approximately 500 liters
same,"amount found in urine, % of total radioactivity",[1]; intravenous 14C-labeled Telmisartan,0.91%
same,administered dose eliminated unchanged in feces via biliary excretion,[1]; intravenous or oral 14C-labeled Telmisartan,> 97%
same,"plasma concentrations with once daily dosing, % of peak plasma concentrations",[1]; once daily dosing,10-25%
same,"amount found in urine, % of total radioactivity",[1]; oral 14C-labeled Telmisartan,0.49%
same,accumulation index in plasma,[1]; repeated once daily dosing,1.5 to 2.0
same,plasma protein binding,[2],> 99.5%
same,wettability,[3],stayed in their aggregated state
same,solubility,[4]; hydrochloric acid,insoluble
same,solubility,[4]; strong acid,sparingly soluble
same,solubility,[4]; strong base,soluble
same,solubility,[4]; water and pH range of 3 to 9,practically insoluble
same,AUC,in vivo,15700 ng·h/mL
same,dissolved Telmisartan content,[5],cannot be detected
